Patent US9944583B2, “Methods for ameliorating and preventing central nervous system inflammation” (THE REGENTS OF THE UNIVERSITY OF CALIFORNIA, priority 2007, dated 2018)
“Also recorded” adds a separate entry of the source.

What was measured:
[1] = system: primary neuronal cultures; test: DHE oxidation (superoxide and/or hydrogen peroxide production) in primary neuronal cultures exposed to ketamine; format: cell-based, mouse
PV-interneurons = test: parvalbumin and GAD67 immunoreactivity in PV-interneurons in primary neuronal cultures; conditions: co-exposure with ketamine 24 h; muscimol 10 μM, C3, apocynin 0.5 mM
[2] = system: synaptosomal mitochondria; test: respiration of synaptosomal mitochondria (oximetry); conditions: apocynin 0-200 μM in synaptosomes
[3] = system: primary neuronal cultures; test: IL-6 exposure of primary neuronal cultures: oxidized DHE, Nox2, parvalbumin and GAD67; format: cell-based, mouse
Description: IL-6 increases superoxide in a Nox dependent manner, and reduces GAD67 and parvalbumin in primary cultures, as summarized by the data graphically presented in FIG. 18. […] As before, dihydroethidium (DHE) was applied for the last hour (DHE detects superoxide and hydrogen peroxide). After fixation, ICC for PV and GAD67 was carried out as described in methods and quantitative confocal microscopy was utilized for fluorescence analysis.
DHE (1 μg/ml) was added during the last hour of treatment. Images show the increase in Nox2 immunoreactivity and oxidized DHE upon treatment with IL-6. Bar-graphs show the results of quantification of oxidized DHE and Nox2 fluorescence expressed as % of control. […] Data are means±SEM. Baseline intensities: DHE=21±4.7; Nox2=18.7±2.6.
Fluorescence confocal images of representative fields depicting the expression of parvalbumin (PV) and GAD67 in PV-interneurons. Bar-graph represents the quantification of fluorescence expressed as % of control. […] Data are means±SEM. Baseline intensities: PV=135±32; GAD67=114±26.
IL-6 potentiates ketamine effects on PV-interneurons. […] After fixation, ICC for GAD67 and parvalbumin was carried out as described by Kinney (2006) J. Neurosci. […] N=3 cultures per condition.

`COc1cc(C(C)=O)ccc1O` [apocynin, 4-hydroxy-3-methoxyacetophenone] was tested, and the “effect on ketamine-mediated increase in oxidized DHE” value ([1]; co-exposure with ketamine 0.5 μM 24 h, muscimol 10 μM, C3 20 μM, apocynin 0.5 mM) was “significantly reduced”, the “effect on ketamine-mediated increase in ROS / free radical production (DHE fluorescence)” value ([1]; ketamine with 1 μM C3 or 500 μM apocynin for 24 h) was “prevented” and the “effect on ketamine-mediated loss of parvalbumin and GAD67 immunoreactivity in PV-interneurons” value (PV-interneurons) was “prevented; also recorded: attenuated”. For the same compound, the mitochondrial respiration [2] was “did not affect”, the “effect on IL-6 effects (DHE oxidation, GAD67 and parvalbumin)” value ([3]; apocynin 0.5 mM with IL-6 10 ng/ml, 24 h) was “prevented” and the “effect on IL-6-induced superoxide production” value ([3]; apocynin added along with IL-6) was “eliminated”. For the same compound, the “effect on Nox2 induction by IL-6” value ([3]; apocynin added along with IL-6) was “not affected”.
